Test results reported in paper PMC5400099, “5-Hydroxyethyl-3-tetradecanoyltetramic acid represents a novel treatment for intravascular catheter infections due to Staphylococcus aureus” (Journal of Antimicrobial Chemotherapy, 2016).
In brackets after ≈: the same amount, converted by molar mass. Several values for one entry are separate records, joined by “and”; a condition that tells them apart may be missing. Equal values may be shown once. Read-outs that look alike come from different tables or passages of the source.

How the values were obtained:
S. aureus [1] = conditions: cited from earlier work
S. aureus biofilms [2] = test: Biofilm susceptibility, resazurin-conversion assay on plasma-coated wells; format: cell-based, Staphylococcus aureus; design: Reduction of MRSA biofilm viability: dose or concentration left out as unconfirmed; conditions: for Comparative anti-biofilm activity: MRSA and MSSA biofilms, compared with the other agents evaluated; for Reduction of biofilm viability: 512 and 1024 mg/L, 24 h treatment
Protocol: Biofilms were formed as previously described to mimic in vivo conditions that promote formation of coagulase-mediated biofilms.[16] Briefly, microtitre plates or glass-bottom culture dishes (MaTek Co., USA) were coated with either 20% (v/v) or 100% (v/v) human plasma, respectively, and inoculated with S. aureus at an OD600 ∼0.2. After 1 h, non-adherent bacteria were aspirated, replaced with fresh RPMI-1640 and biofilms allowed to form over 24 h at 37 °C. Pre-formed biofilms were treated for 24 h with either 5HE-C14-TMA, C14-TOA or C14-TTA or a positive control [ethanol at 40% (v/v)]. Biofilm viability was measured by (i) resazurin-conversion assay (in microtitre wells), or (ii) live/dead imaging (glass-bottom dishes). Conversion of the non-fluorescent redox dye, resazurin into the fluorescent resorufin was performed as described previously.[16] A 44 μM resazurin (Sigma-Aldrich, UK) solution in RPMI-1640 was added to an equal biofilm volume and incubated for 1 h at 37 °C. Fluorescence (excitation 544 nm, emission 590 nm) was quantified using a Perkin Elmer 2030 Multilabel Reader Victor^TM X3. Biofilms were stained with SYTO9 Green (at 13.36 μM) and propidium iodide (at 80 μM) (Molecular Probes®) for 1 h prior to washing. Four representative images at ×40 and ×100 were obtained per experimental group, per experiment using a Zeiss LSM 510 META confocal microscope. Each experiment was repeated at least three times. Fluorescence intensity was quantified using Image J1 software (http://imagej.net/Welcome).

S. aureus [3] = tested on: S. aureus; design: method as in PMID 24592914; conditions: cited from earlier work; for Effect on frequency and severity of arthritis: murine S. aureus arthritis model
S. aureus biofilms [4] = tested on: S. aureus biofilms; design: method as in PMID 19807189; conditions: cited from earlier work
S. aureus [5] = tested on: S. aureus; design: method as in PMID 15623555, PMID 19807189; conditions: sub-growth inhibitory concentrations; cited from earlier work
S. aureus strain USA300 = test: MIC by broth microdilution (CLSI), strain USA300; format: cell-based; conditions: Staphylococcus aureus; USA300 (MRSA), Mueller–Hinton broth
Protocol: (§1) Community-acquired MRSA (CA-MRSA) strain USA300, its isogenic agr mutant,[17] the hospital-acquired MRSA (HA-MRSA) strain BH1CC,[18] the HA-MSSA strain BH48[19] and the MSSA strain SH1000[20] were cultured in Mueller–Hinton broth for susceptibility testing or in RPMI-1640 (Gibco) for biofilm formation. For the rat jugular vein catheter infection model, the S. aureus strain USA300 (LAC) lux[21] was used.
(§2) 5HE-C14-TMA and C14-TOA were synthesized as described previously[9] and C14-TTA as described in the Supplementary data available at JAC Online. Stock solutions of the compounds in DMSO at 10–50 mM were further diluted into tissue culture media or sodium chloride for the in vivo experiments. A DMSO solvent control was used in all in vitro experiments. The following antibiotics were used: vancomycin (Vancocin; Flynn Pharma Ltd., Republic of Ireland), daptomycin (Cubicin; Novartis, UK), gentamicin (Hospira, UK) and tigecycline (Tygacil; Pfizer Inc.). MICs were determined by broth microdilution in Mueller–Hinton broth, as recommended by the CLSI.

S. aureus strain BH1CC = test: MIC by broth microdilution (CLSI), strain BH1CC; format: cell-based; conditions: Staphylococcus aureus; BH1CC (MRSA), Mueller–Hinton broth
Protocol: as §1, §2

S. aureus strain SH1000 = test: MIC by broth microdilution (CLSI), strain SH1000; format: cell-based; conditions: Staphylococcus aureus; SH1000 (MSSA), Mueller–Hinton broth
Protocol: as §1, §2

S. aureus strain BH48 = test: MIC by broth microdilution (CLSI), strain BH48; format: cell-based; conditions: Staphylococcus aureus; BH48 (MSSA), Mueller–Hinton broth
Protocol: as §1, §2

[6] = tested on: MRSA (USA300 JE2 and BH1CC) and MSSA (SH1000 and BH48) strains; test: MIC by broth microdilution, MRSA and MSSA strains; format: cell-based, Staphylococcus aureus; conditions: MRSA and MSSA strains investigated
Protocol: as §1, §2

S. aureus USA300 LAC = test: Bactericidal activity (time-kill, viable counts); format: cell-based, Staphylococcus aureus; conditions: 8 × MIC, planktonic USA300
Protocol: S. aureus USA300 LAC was grown overnight in LB medium, diluted 250-fold and grown to an OD600 0.5. Cells were diluted to 1 × 10^6 per mL in challenge medium (LB plus 5HE-C14-TMA, C14-TOA or C14-TTA at 8 × MIC). Samples were removed and viable counts determined at 30 min intervals for the first hour followed by hourly sampling. The CLSI defines a compound as bactericidal if it reduces the starting inoculum colony count by at least 99.9% (3-logs).

[7] = tested on: S. aureus strain USA300 LAC; test: Membrane permeabilization: ATP release; format: cell-based, Staphylococcus aureus; conditions: 0-100 μM, 1 h
Protocol: (§3) Membrane permeabilization was evaluated by quantifying (i) ATP release,[22] and (ii) the uptake of propidium iodide.[22]S. aureus strain USA300 LAC was grown overnight in CYGP medium,[9] washed with sodium phosphate buffer (100 mM, pH 7), re-suspended to OD600 0.1 and incubated at 37 °C with a range of concentrations of each compound for 1 h. Nisin (0.6 μM) was used as a positive control. Cell-free supernatants were assayed for ATP using the Cell Titre-Glo kit (Promega). Staphylococcal cells were re-suspended in 100 mM sodium phosphate buffer (pH 7) containing propidium iodide (10 mg/L), incubated in the dark at room temperature for 10 min. After washing, propidium iodide fluorescence (excitation: 575 nm; emission 630 nm) was determined.

[8] = tested on: S. aureus strain USA300 LAC; test: Membrane permeabilization: propidium iodide uptake; format: cell-based, Staphylococcus aureus; conditions: 0-100 μM, 1 h
Protocol: as §3

[9] = MTT cell viability assay, HaCaT; format: cell-based, Human; conditions: human, HaCaT keratinocyte cells; HaCaT, MTT, 24 h
Protocol: (§4) Human keratinocyte (HaCaT) cells were cultured in DMEM supplemented with 10% (v/v) FBS. Primary human umbilical vein endothelial cells (HUVECs) were cultured in EGM™-2 Bulletkit (Lonza) medium. HaCaT and HUVECs were harvested using TrypLE^TM Express (Gibco). Cells were seeded in microtitre plates at 3 × 10^5 cells/mL and incubated for 24 h at 37 °C with an antimicrobial compound ([…]) or Triton X100 at 1% (v/v). After removing the medium, cells were incubated with 500 mg/L MTT (Sigma-Aldrich) for 4 h. The crystals formed were solubilized with DMSO. Absorbance was recorded at 560 nm and the CC50 was determined.

[10] = tested on: Human keratinocyte (HaCaT) cells; test: MTT cell viability assay, HaCaT; format: cell-based; conditions: HaCaT cells
Protocol: as §4

Haemolysis assay = format: cell-based; conditions: red blood cells; human RBC; read-out: CC50 (haemolytic activity)
Protocol: Human blood containing EDTA (1.6 g/L) was centrifuged at 1000 g for 5 min. Red blood cells (RBC) were washed twice with PBS, diluted 2-fold and incubated with compounds or Triton X100 (positive control) at 0.5% (v/v). A570 was determined to quantify haemolysis. IC50s were derived from the corresponding dose–response curves.

Iron chelation = format: physicochemical; conditions: data not shown
[11] = MTT cell viability assay, HUVEC; format: cell-based, human; conditions: human, primary HUVECs (umbilical vein endothelial cells); HUVEC, MTT, 24 h
Protocol: as §4

[12] = tested on: Primary human umbilical vein endothelial cells (HUVECs); test: MTT cell viability assay, HUVEC; format: cell-based; conditions: HUVECs
Protocol: as §4

[13] = tested on: agr quorum sensing system; design: method as in PMID 24592914; conditions: S. aureus; cited from earlier work
staphylococcal membrane = tested on: staphylococcal membrane; design: method as in PMID 24592914; conditions: binding to the staphylococcal membrane, single site model; cited from earlier work

## CCCCCCCCCC(=O)C1C(=O)CNC1=O (centres unmarked) [C10-TMA, reference compound]
S. aureus [1]
  Antibacterial activity after removal of the 5-hydroxyethyl moiety of 5HE-C10-TMA: did not reduce antibacterial activity

## CN[C@H](CC(C)C)C(=O)N[C@H]1C(=O)N[C@@H](CC(N)=O)C(=O)N[C@H]2C(=O)N[C@H]3C(=O)N[C@H](C(=O)N[C@H](C(=O)O)c4cc(O)cc(O)c4-c4cc3ccc4O)[C@H](O)c3ccc(c(Cl)c3)Oc3cc2cc(c3O[C@@H]2O[C@H](CO)[C@@H](O)[C@H](O)[C@H]2O[C@H]2C[C@](C)(N)[C@H](O)[C@H](C)O2)Oc2ccc(cc2Cl)[C@H]1O [vancomycin, reference compound]
S. aureus biofilms [2]; MRSA biofilm, resazurin
  Reduction of MRSA biofilm viability: 3.5–4 fold

## CCCCCCCCCC(=O)C1C(=O)NC(CCO)C1=O (centres unmarked) [5HE-C10-TMA, 5-hydroxyethyl-3-decanoyltetramic acid]
S. aureus [3]
  Toxicity in murine arthritis model: neither C14-TOA nor 5HE-C10-TMA were toxic
  Effect on frequency and severity of arthritis: inactive
S. aureus biofilms [4]; at 200 mg/L
  Activity against S. aureus biofilms: inactive
S. aureus biofilms [4]
  Efficacy against S. aureus biofilms: no efficacy
S. aureus [5]
  Selection for resistance on serial passage: did not select for resistance

## CCCCCCCCCC(=O)CC(=O)N[C@H]1CCOC1=O [3-oxo-C12-HSL, N-(3-oxododecanoyl)-L-homoserine lactone, reference compound]
S. aureus [1]; S. aureus growth
  MIC: 100 μM and 30 mg/L

## CCCCCCCCCC(=O)N[C@@H](Cc1c[nH]c2ccccc12)C(=O)N[C@H](CC(N)=O)C(=O)N[C@@H](CC(=O)O)C(=O)N[C@@H]1C(=O)NCC(=O)N[C@@H](CCCN)C(=O)N[C@@H](CC(=O)O)C(=O)N[C@H](C)C(=O)N[C@@H](CC(=O)O)C(=O)NCC(=O)N[C@H](CO)C(=O)N[C@@H]([C@H](C)CC(=O)O)C(=O)N[C@@H](CC(=O)c2ccccc2N)C(=O)O[C@@H]1C [daptomycin, reference compound]
S. aureus biofilms [2]
  Comparative anti-biofilm activity: most active antimicrobial evaluated

## CCCCCCCCCCCCCC(=O)C1=C(O)SCC1=O [C14-TTA, 3-tetradecanoylthiotetronic acid]
S. aureus strain USA300
  MIC: 12.5 µM and 4 µg/mL
S. aureus strain BH1CC
  MIC: 12.5 µM and 4 µg/mL
S. aureus strain SH1000
  MIC: 12.5 µM and 4 µg/mL
S. aureus strain BH48
  MIC: 12.5 µM and 4 µg/mL
[6]
  MIC: 4 µg/mL (≈ 12.3 µM)
[6]; Staphylococcus aureus
  MIC: 2 to 4 µg/mL (≈ 6.13 to 12.3 µM)
S. aureus USA300 LAC
  Bactericidal activity (CLSI: at least 3-log reduction): bactericidal
[7]
  Extracellular ATP levels (ATP release relative to nisin 0.6 μM): least active
[8]
  Propidium iodide fluorescence (uptake relative to nisin 0.6 μM): least active
S. aureus biofilms [2]; resazurin
  Reduction of biofilm viability: 2.5–3 fold
S. aureus biofilms [2]
  Comparative anti-biofilm activity: far less effective
[9]
  CC50 at 24 h: 26 µM and 8.3 µg/mL
[10]
  Selectivity index (SI, CC50/MIC): 2
Haemolysis assay
  CC50: 470 µM and 153 µg/mL
Iron chelation
  Iron chelation: do not chelate iron

## CCCCCCCCCCCCCC(=O)C1=C(O)OCC1=O [C14-TOA, 3-tetradecanoyltetronic acid]
S. aureus strain USA300
  MIC: 12.5 µM and 4 µg/mL
S. aureus strain BH1CC
  MIC: 12.5 µM and 4 µg/mL
S. aureus strain SH1000
  MIC: 12.5 µM and 4 µg/mL
S. aureus strain BH48
  MIC: 12.5 µM and 4 µg/mL
[6]
  MIC: 4 µg/mL (≈ 12.9 µM)
[6]; Staphylococcus aureus
  MIC: 2 to 4 µg/mL (≈ 6.44 to 12.9 µM)
S. aureus biofilms [2]; resazurin
  Reduction of biofilm viability: 2.5–3 fold
S. aureus biofilms [2]
  Comparative anti-biofilm activity: far less effective
[9]
  CC50 at 24 h: 257 µM and 80 µg/mL
[10]
  Selectivity index (SI, CC50/MIC): 20
[11]
  CC50 at 24 h: 28 µM and 9 µg/mL
[12]
  Selectivity index (SI, CC50/MIC): 2.3
Haemolysis assay
  CC50: > 2.05 mM and > 667 µg/mL
Iron chelation
  Iron chelation: do not chelate iron
S. aureus [1]; towards S. aureus
  MIC: 25 µM (≈ 7.76 µg/mL)
[13]
  IC50: 3 µM
Staphylococcal membrane
  Kd: 2 µM
S. aureus [3]
  Toxicity in murine arthritis model: neither C14-TOA nor 5HE-C10-TMA were toxic
  Effect on frequency and severity of arthritis: significantly reduced the frequency and severity of arthritis and joint destruction
S. aureus [3]; murine S. aureus infection model
  Numbers of viable staphylococci in the kidneys: did not, however, reduce
